Converted amounts (≈) assume the structure as drawn. Like-named read-outs stand apart in the source and are kept apart here.
Legend:
S. aureus Mu50 = assay: microbe, parasite or virus in culture; format: cell-based, Staphylococcus aureus; details: for MIC ratio (Mu50 MIC/FDA209P MIC): MIC for S. aureus Mu50 / MIC for S. aureus FDA209P; for MIC: S. aureus Mu50, quinolone-resistant MRSA, ParC S80F, GyrA S84L
Description: (§1) Then, the cell suspension was diluted 500 times with CAMHB mentioned above.

[1] = test system: S. aureus FDA209P (ATCC 6538P); assay: microbe, parasite or virus in culture; format: cell-based, Staphylococcus aureus; details: quinolone-susceptible MSSA, ParC 80S, GyrA 84S
Description: as §1

E. faecium RPR2 = assay: MIC against Enterococcus bacteria; format: cell-based, Enterococcus faecium
Description: (§2) Antibacterial activities of the compound J-131CP against Enterococcus bacteria (Enterococcus faecium and Enterococcus faecalis) were examined by the following methods.
(§3) The compound J-131CP and quinolones were prepared in the same manner as that of Test Example 1-1.
(§4) Cell suspensions were prepared in the same manner as that of Test Example 1-1 described in the section of measurement of MIC in Test Example 1-1, except that the Enterococcus bacterium strains mentioned in Table 8 were used instead of Staphylococcus aureus, and MICs of the compound J-131CP and quinolones as control were determined for the strains in the same manner as that of Test Example 1-1 described in the section of measurement of MIC in Test Example 1-1. In Table 8, the amino acid substitution mutations in QRDR of the strains are underlined.

E. faecium NCTC12202 = assay: MIC against Enterococcus bacteria; format: cell-based, Enterococcus faecium
Description: as §2, §3, §4

E. faecalis NCTC12201 = assay: MIC against Enterococcus bacteria; format: cell-based; details: quinolone-susceptible
Description: as §2, §3, §4

S. pneumoniae KBSP11 = assay: MIC against pneumococcus, CAMHB with 5 mass % LHB; format: cell-based, Streptococcus pneumoniae
Description: (§5) The S. pneumoniae strains used for this test belong to any one of the categories of penicillin-susceptible pneumococcus (penicillin-susceptible Streptococcus pneumoniae, PSSP), penicillin-intermediate pneumococcus (penicillin-intermediate Streptococcus pneumoniae, PISP), and penicillin-resistant pneumococcus (penicillin-resistant Streptococcus pneumoniae, PRSP).
(§6) The lysed horse blood was prepared by adding sterilized water to horse sterile defibered blood (produced by Nippon Bio-Supp. Center) at a ratio of 1:1, subjecting the mixture to freezing and thawing 5 times, then centrifuging the mixture twice at 10,000 rpm for 20 minutes, and filtering the supernatant through a filter.
(§7) The S. pneumoniae strains mentioned in Table 11 were each cultured overnight at 37° C. on a blood agar medium as stationary culture. The blood agar medium was prepared by adding 5 mass % ovine sterile defibered blood (produced by Nippon Bio-Supp. Center) to a heart infusion agar medium (produced by EIKEN CHEMICAL). Each S. pneumoniae strain cultured overnight at 37° C. as stationary culture was further subcultured overnight at 37° C. on fresh blood agar medium as stationary culture. After completion of the culture, cells of each pneumococcus strain were collected with a swab, and suspended in physiological saline, and the suspension was adjusted with physiological saline to show absorbance of 0.08 to 0.13 at 625 nm as measured with an absorbance meter (produced by Amersham), and further diluted 200 times with CAMHB containing 5 mass % LHB.
(§8) In Table 11, the amino acid substitution mutations in QRDR of the strains are underlined.

S. pneumoniae BCLSP37 = assay: MIC against pneumococcus, CAMHB with 5 mass % LHB; format: cell-based, Streptococcus pneumoniae; details: quinolone-resistant, ParC 79Phe, GyrA 85Lys
Description: as §5, §6, §7, §8

E. faecalis 36-15722 = assay: MIC against Enterococcus bacteria; format: cell-based, Enterococcus faecalis; details: E. faecalis 36-15722, quinolone-resistant, ParC 80Ile, GyrA 84Ile
Description: as §2, §3, §4

E. coli strain 1709 = assay: Antibacterial activity against Escherichia coli
Description: (§9) The numerical values in the tables indicate MIC (mg/L), Res means resistant bacterium, and Sus means susceptible bacterium.
(§10) Antibacterial activities against Escherichia coli of the compounds shown Table 19 were examined by the following method.
(§11) After completion of the culture, the cells were suspended in fresh TBS to prepare a cell suspension showing an absorbance of 0.3 at 578 nm.

E. coli strain 1708 = assay: Antibacterial activity against Escherichia coli
Description: as §9, §10, §11

[2] = test system: E. coli strain 1709 plus PABN; assay: Antibacterial activity against Escherichia coli in combination with efflux pump inhibitor PAβN; details: E coli plus PABN 40 mg/L, strain 1709, Quinolone Sus
Description: as §9, §10, §11

[3] = test system: E. coli strain 1708 plus PABN; assay: as above; details: E coli plus PABN 40 mg/L, strain 1708, Quinolone Res
Description: as §9, §10, §11

[4] = Staphylococcus aureus, ATCC 6538P / FDA209P / MSSA, read-out: MIC
[5] = Enterococcus faecium, NCTC 12202 / VRE
[6] = Enterococcus faecalis, NCTC 12201 / VRE
[7] = Streptococcus pneumoniae, BCLSP37, S. pneumoniae BCLSP37, PSSP, read-out: MIC
[8] = Enterococcus faecalis, 3615722, read-out: MIC

SMILES | MIC ratio (Mu50 MIC/FDA209P MIC) (S. aureus Mu50) | MIC (S. aureus Mu50; Staphylococcus aureus, MRSA) | MIC [1, 4] | MIC (E. faecium RPR2; Enterococcus faecium, RPR2) | MIC (E. faecium NCTC12202; [5]) | MIC (E. faecalis NCTC12201; [6]) | MIC (S. pneumoniae KBSP11; Streptococcus pneumoniae, PRSP) | MIC (S. pneumoniae BCLSP37; [7]) | MIC (E. faecalis 36-15722; [8]) | MIC (E. coli strain 1709) | MIC (E. coli strain 1708) | MIC [2] | MIC [3] | other results
Nc1ccc(-c2cc3c(cc2F)c(CO)cc(=O)n3C2CC2)cc1 [J-132CP, 7-(4-aminophenyl)-1-cyclopropyl-6-fluoro-4-(hydroxymethyl)hydroquinolin-2-one] | 1 | 0.5 µg/mL (≈ 1.54 µM) | 0.5 µg/mL (≈ 1.54 µM) | 8 µg/mL (≈ 24.7 µM) | 16 µg/mL (≈ 49.3 µM) | 2 µg/mL (≈ 6.17 µM) | 2 µg/mL (≈ 6.17 µM) | 4 µg/mL (≈ 12.3 µM) | 2 µg/mL (≈ 6.17 µM) | – | – | – | – | –
NCc1cc(=O)n(C2CC2)c2cc(-c3ccc(O)cc3)c(F)cc12 [J-139, 4-(aminomethyl)-1-cyclopropyl-6-fluoro-7-(4-hydroxyphenyl)hydroquinolin-2-one] | 1 | 0.5 µg/mL (≈ 1.54 µM) | 0.5 µg/mL (≈ 1.54 µM) | 8 µg/mL (≈ 24.7 µM) | 8 µg/mL (≈ 24.7 µM) | 1 µg/mL (≈ 3.08 µM) | 1 µg/mL (≈ 3.08 µM) | 4 µg/mL (≈ 12.3 µM) | 4 µg/mL (≈ 12.3 µM) | – | – | – | – | –
CC1NCc2cc(-c3cc4c(cc3F)c(CO)cc(=O)n4C3CC3)ccc21 (stereo not shown) [J-144, 1-cyclopropyl-6-fluoro-4-(hydroxymethyl)-7-(1-methylisoindolin-5-yl)hydroquinolin-2-one] | 2 | 1 µg/mL (≈ 2.74 µM) | 0.5 µg/mL (≈ 1.37 µM) | 4 µg/mL (≈ 11 µM) | 8 µg/mL (≈ 22 µM) | 0.5 µg/mL (≈ 1.37 µM) | 0.25 µg/mL (≈ 0.686 µM) | 0.5 µg/mL (≈ 1.37 µM) | 0.5 µg/mL (≈ 1.37 µM) | – | – | – | – | –
CC1COc2c(-c3ccc(O)cc3)c(F)cc3c(CO)cc(=O)n1c23 (stereo not shown) [J-149, 9-fluoro-7-(hydroxymethyl)-10-(4-hydroxyphenyl)-3-methyl-2H-[1,4]oxazino[2,3,4-ij]quinolin-5(3H)-one] | 1 | 0.5 µg/mL (≈ 1.46 µM) | 0.5 µg/mL (≈ 1.46 µM) | 16 µg/mL (≈ 46.9 µM) | 128 µg/mL (≈ 375 µM) | 0.5 µg/mL (≈ 1.46 µM) | 4 µg/mL (≈ 11.7 µM) | 8 µg/mL (≈ 23.4 µM) | 0.5 µg/mL (≈ 1.46 µM) | – | – | – | – | –
O=c1cc(CO)c2ccc(-c3ccc(O)cc3)c(F)c2n1C1CC1 [J-154, 1-cyclopropyl-8-fluoro-4-(hydroxymethyl)-7-(4-hydroxyphenyl)hydroquinolin-2-one] | 0.5 | 0.25 µg/mL (≈ 0.768 µM) | 0.5 µg/mL (≈ 1.54 µM) | 8 µg/mL (≈ 24.6 µM) | 16 µg/mL (≈ 49.2 µM) | 4 µg/mL (≈ 12.3 µM) | 8 µg/mL (≈ 24.6 µM) | 8 µg/mL (≈ 24.6 µM) | 2 µg/mL (≈ 6.15 µM) | – | – | – | – | –
O=c1cc(CO)c2cc(F)c(-c3ccc(O)cc3)c(F)c2n1C1CC1 [J-155] | – | 0.13 µg/mL (≈ 0.379 µM) | 0.25 µg/mL (≈ 0.728 µM) | 8 µg/mL (≈ 23.3 µM) | 16 µg/mL (≈ 46.6 µM) | 1 µg/mL (≈ 2.91 µM) | 12 µg/mL (≈ 35 µM) | 1 µg/mL (≈ 2.91 µM) | 1 µg/mL (≈ 2.91 µM) | 8 µg/mL (≈ 23.3 µM) | 128 µg/mL (≈ 373 µM) | ≦0.06 mg/L | 0.5 mg/L | –
COc1c(-c2ccc(O)cc2)c(F)cc2c(CO)cc(=O)n(C3CC3)c12 [J-156] | – | 0.5 µg/mL (≈ 1.41 µM) | 0.5 µg/mL (≈ 1.41 µM) | – | – | 2 µg/mL (≈ 5.63 µM) | 4 µg/mL (≈ 11.3 µM) | 2 µg/mL (≈ 5.63 µM) | 2 µg/mL (≈ 5.63 µM) | 128 µg/mL (≈ 360 µM) | 128 µg/mL (≈ 360 µM) | 0.1 mg/L | 2 mg/L | –
O=c1cc(CO)c2cc(F)c(-c3ccc(O)cc3)c(Cl)c2n1C1CC1 [J-161] | – | 0.5 µg/mL (≈ 1.39 µM) | 0.25 µg/mL (≈ 0.695 µM) | 8 µg/mL (≈ 22.2 µM) | 16 µg/mL (≈ 44.5 µM) | 1 µg/mL (≈ 2.78 µM) | 2 µg/mL (≈ 5.56 µM) | 4 µg/mL (≈ 11.1 µM) | 1 µg/mL (≈ 2.78 µM) | 16 µg/mL (≈ 44.5 µM) | 128 µg/mL (≈ 356 µM) | 0.13 mg/L | 1 mg/L | –
Nc1ccc(-c2cc3c(cc2F)c(CO)cc(=O)n3C2CC2)cc1 [J-166] | – | – | – | – | – | – | – | – | – | 8 µg/mL (≈ 24.7 µM) | 128 µg/mL (≈ 395 µM) | ≦0.06 mg/L | 0.5 mg/L | MIC (S. aureus Mu50): 1 µg/mL (≈ 3.08 µM); MIC [1]: 1 µg/mL (≈ 3.08 µM); MIC (E. faecium RPR2; E. faecium RPR2, quinolone-resistant, ParC 82Ile, GyrA 84Ile 88Lys): 8 µg/mL (≈ 24.7 µM); MIC (E. faecium NCTC12202; E. faecium NCTC12202, VRE, quinolone-susceptible): 16 µg/mL (≈ 49.3 µM); MIC (E. faecalis NCTC12201; E. faecalis NCTC12201, VRE): 1 µg/mL (≈ 3.08 µM); MIC (S. pneumoniae KBSP11; S. pneumoniae KBSP11, PRSP, quinolone-susceptible): 2 µg/mL (≈ 6.17 µM); MIC (S. pneumoniae BCLSP37; S. pneumoniae BCLSP37, PSSP): 2 µg/mL (≈ 6.17 µM); MIC (E. faecalis 36-15722): 2 µg/mL (≈ 6.17 µM)
O=c1cc(CO)c2cc(F)c(-c3ccccc3)cc2n1C1CC1 [J-168] | – | 2 µg/mL (≈ 6.47 µM) | 2 µg/mL (≈ 6.47 µM) | – | – | – | – | – | – | 16 µg/mL (≈ 51.7 µM) | 128 µg/mL (≈ 414 µM) | ≦0.06 mg/L | 0.5 mg/L | –
NOCc1cc(=O)n(C2CC2)c2cc(-c3ccc(O)cc3)c(F)cc12 [J-174] | – | 1 µg/mL (≈ 2.94 µM) | 2 µg/mL (≈ 5.88 µM) | – | – | 4 µg/mL (≈ 11.8 µM) | – | – | 8 µg/mL (≈ 23.5 µM) | 64 µg/mL (≈ 188 µM) | 128 µg/mL (≈ 376 µM) | 0.5 mg/L | 4 mg/L | –
O=c1cc(CO)c2cc(F)c(-c3ccc(O)c(O)c3)cc2n1C1CC1 [J-176] | – | 1 µg/mL (≈ 2.93 µM) | 2 µg/mL (≈ 5.86 µM) | 4 µg/mL (≈ 11.7 µM) | 8 µg/mL (≈ 23.4 µM) | 2 µg/mL (≈ 5.86 µM) | 4 µg/mL (≈ 11.7 µM) | 8 µg/mL (≈ 23.4 µM) | 2 µg/mL (≈ 5.86 µM) | 32 µg/mL (≈ 93.7 µM) | 128 µg/mL (≈ 375 µM) | – | – | –

Source: patent US20160257651A1, “NOVEL COMPOUND WITH ANTIBACTERIAL ACTIVITY” (priority 2013, published 2016)
